Where two headings read alike, the source gives them in different places.
Tests used:
Assay type in all cases: in vivo
[1] = test system: sedge, umbrella (small-flower umbrella sedge, Cyperus difformis); experiment: Test B flooded paddy test; details: Cyperus difformis, 312 h; Flood, 125 g ai/ha; scale of 0 to 100, 0 is no effect, 100 is complete control; 13 to 15 d; read-out: Plant response rating, Sedge, Umbrella
Procedure, shortened: (§1)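 Visual scores from 0 (no effect) to 100 (complete control) are relative to controls, assessed 13 to 15 d after treatment under greenhouse conditions. Treatment went into the paddy water of pots flooded 3 cm deep, with seedlings at the 2-leaf stage and flooding maintained.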

[2] = test system: rice (Oryza sativa); experiment: Test B flooded paddy test; details: Oryza sativa, 312 h; Flood, 125 g ai/ha; scale of 0 to 100, 0 is no effect, 100 is complete control; 13 to 15 d; read-out: Plant response rating, Rice
Procedure, shortened: as §1

[3] = test system: chickweed (common chickweed, Stellaria media); experiment: Test C postemergence greenhouse herbicide test
Excerpt: At the same time, plants selected from these crop and weed species and also barley (winter barley, Hordeum vulgare), canarygrass (Phalaris minor), windgrass (Apera spica-venti), deadnettle (henbit deadnettle, Lamium amplexicaule), and chickweed (common chickweed, Stellaria media) were planted in pots containing Redi-Earth® planting medium (Scotts Company, 14111 Scottslawn Road, Marysville, Ohio 43041) comprising spaghnum peat moss, vermiculite, wetting agent and starter nutrients and treated with postemergence applications of test chemicals formulated in the same manner. Plants ranged in height from 2 to 18 cm (1- to 4-leaf stage) for postemergence treatments. Treated plants and controls were maintained in a greenhouse for 13 to 15 d, after which time all species were compared to controls and visually evaluated. Plant response ratings, summarized in Table C, are based on a scale of 0 to 100 where 0 is no effect and 100 is complete control. A dash (-) response means no test result.

[4] = test system: crabgrass, Large (large crabgrass, Digitaria sanguinalis); experiment: Test A pre-/postemergence greenhouse herbicide test; details: Digitaria sanguinalis, 240 h, 0 to 100 scale (0 no effect, 100 complete control), approx. 10 d, read-out: Plant response rating, Crabgrass, Large; for pest or weed control at 125 g/ha: 125 g ai/ha; for pest or weed control at 500 g/ha: 500 g ai/ha
Procedure, shortened: (§2)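 Injury was scored visually on a 0 to 100 scale, where 0 meant no effect and 100 complete control, relative to untreated plants after about 10 d in the greenhouse. Preemergence treatment was a directed soil spray on seeded loam–sand; postemergence spray went onto one- to two-leaf plants.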

[5] = test system: velvetleaf (Abutilon theophrasti); experiment: as above; details: Abutilon theophrasti, 240 h, 0 to 100 scale (0 no effect, 100 complete control), approx. 10 d, read-out: Plant response rating, Velvetleaf; for pest or weed control at 125 g/ha: 125 g ai/ha; for pest or weed control at 500 g/ha: 500 g ai/ha
Procedure, shortened: as §2

[6] = test system: corn (Zea mays); experiment: as above; details: Zea mays, 240 h, 0 to 100 scale (0 no effect, 100 complete control), approx. 10 d; for Corn plant response rating (crop injury, 0 = no effect, 100 = complete kill) at 125 g/ha: 125 g ai/ha; for Corn plant response rating (crop injury, 0 = no effect, 100 = complete kill) at 500 g/ha: 500 g ai/ha
Procedure, shortened: as §2

[7] = test system: foxtail, giant (giant foxtail, Setaria faberii); experiment: as above; details: Setaria faberi, 240 h, 0 to 100 scale (0 no effect, 100 complete control), approx. 10 d, read-out: Plant response rating, Foxtail, Giant; for pest or weed control at 125 g/ha: 125 g ai/ha; for pest or weed control at 500 g/ha: 500 g ai/ha
Procedure, shortened: as §2

[8] = test system: wheat (Triticum aestivum); experiment: as above; details: Triticum aestivum, 240 h, 0 to 100 scale (0 no effect, 100 complete control), approx. 10 d, read-out: Plant response rating, Wheat; for plant injury at 125 g/ha: 125 g ai/ha; for plant injury at 500 g/ha: 500 g ai/ha
Procedure, shortened: as §2

[9] = test system: barnyardgrass (Echinochloa crus-galli); experiment: as above; details: Echinochloa crus-galli, 240 h, 0 to 100 scale (0 no effect, 100 complete control), approx. 10 d, read-out: Plant response rating, Barnyardgrass; for pest or weed control at 125 g/ha: 125 g ai/ha; for pest or weed control at 500 g/ha: 500 g ai/ha
Procedure, shortened: as §2

[10] = test system: pigweed (Amaranthus retroflexus); experiment: as above; details: Amaranthus retroflexus, 240 h, 0 to 100 scale (0 no effect, 100 complete control), approx. 10 d, read-out: Plant response rating, Pigweed; for pest or weed control at 125 g/ha: 125 g ai/ha; for pest or weed control at 500 g/ha: 500 g ai/ha
Procedure, shortened: as §2

[11] = test system: morningglory (Ipomoea spp.); experiment: as above; details: Ipomoea, 240 h, 0 to 100 scale (0 no effect, 100 complete control), approx. 10 d, read-out: Plant response rating, Morningglory; for pest or weed control at 125 g/ha: 125 g ai/ha; for pest or weed control at 500 g/ha: 500 g ai/ha
Procedure, shortened: as §2

`Cc1cc(=O)n(-c2ccc(C(F)(F)F)cc2)nc1Cc1ccnc(C(F)(F)F)c1` [Compound 2, 5-methyl-2-[4-(trifluoromethyl)phenyl]-6-[[2-(trifluoromethyl)-4-pyridinyl]methyl]-3(2H)-pyridazinone] showed a pest or weed control at 125 g/ha [1] of 80%, a plant injury at 125 g/ha [2] of 0% and a Plant response rating ([3]; 31 g ai/ha) of 60. For the same compound, the Plant response rating ([3]; 62 g ai/ha) was 70, the Plant response rating ([3]; 125 g ai/ha) was 90 and the Plant response rating ([3]; 250 g ai/ha) was 90. The pest or weed control at 125 g/ha ([4]; post-emergence, Postemergence) was 80%, the pest or weed control at 500 g/ha ([4]; post-emergence, Postemergence) was 100% and the pest or weed control at 125 g/ha ([4]; pre-emergence, Preemergence) was 100%. It also gave a pest or weed control at 500 g/ha ([4]; pre-emergence, Preemergence) of 100%, a pest or weed control at 125 g/ha ([5]; post-emergence, Postemergence) of 50% and a pest or weed control at 500 g/ha ([5]; post-emergence, Postemergence) of 100%. It also gave a pest or weed control at 125 g/ha ([5]; pre-emergence, Preemergence) of 20%, a pest or weed control at 500 g/ha ([5]; pre-emergence, Preemergence) of 50% and a Corn plant response rating (crop injury, 0 = no effect, 100 = complete kill) at 125 g/ha ([6]; post-emergence, Postemergence) of 70%. For the same compound, the Corn plant response rating (crop injury, 0 = no effect, 100 = complete kill) at 500 g/ha ([6]; post-emergence, Postemergence) was 90%, the Corn plant response rating (crop injury, 0 = no effect, 100 = complete kill) at 125 g/ha ([6]; pre-emergence, Preemergence) was 30% and the Corn plant response rating (crop injury, 0 = no effect, 100 = complete kill) at 500 g/ha ([6]; pre-emergence, Preemergence) was 50%. For the same compound, the pest or weed control at 125 g/ha ([7]; post-emergence, Postemergence) was 80%, the pest or weed control at 500 g/ha ([7]; post-emergence, Postemergence) was 100% and the pest or weed control at 125 g/ha ([7]; pre-emergence, Preemergence) was 100%. The pest or weed control at 500 g/ha ([7]; pre-emergence, Preemergence) was 100%, the plant injury at 125 g/ha ([8]; post-emergence, Postemergence) was 40% and the plant injury at 500 g/ha ([8]; post-emergence, Postemergence) was 80%. The plant injury at 125 g/ha ([8]; pre-emergence, Preemergence) was 0%, the plant injury at 500 g/ha ([8]; pre-emergence, Preemergence) was 40% and the pest or weed control at 125 g/ha ([9]; post-emergence, Postemergence) was 80%. It also gave a pest or weed control at 500 g/ha ([9]; post-emergence, Postemergence) of 90%, a pest or weed control at 125 g/ha ([9]; pre-emergence, Preemergence) of 80% and a pest or weed control at 500 g/ha ([9]; pre-emergence, Preemergence) of 100%. The pest or weed control at 125 g/ha ([10]; post-emergence, Postemergence) was 90%, the pest or weed control at 500 g/ha ([10]; post-emergence, Postemergence) was 100% and the pest or weed control at 125 g/ha ([10]; pre-emergence, Preemergence) was 100%. The pest or weed control at 500 g/ha ([10]; pre-emergence, Preemergence) was 100%.
`Cc1cc(Oc2ccnc(C(F)(F)F)c2)nn(-c2ccc(C(F)(F)F)cc2)c1=O` [Compound 6, 4-methyl-2-[4-(trifluoromethyl)phenyl]-6-[[2-(trifluoromethyl)-4-pyridinyl]oxy]-3(2H)-pyridazinone] showed a pest or weed control at 125 g/ha [1] of 0%, a plant injury at 125 g/ha [2] of 0% and a Plant response rating ([3]; 31 g ai/ha) of 80. The Plant response rating ([3]; 62 g ai/ha) was 95, the Plant response rating ([3]; 125 g ai/ha) was 95 and the Plant response rating ([3]; 250 g ai/ha) was 98. For the same compound, the pest or weed control at 125 g/ha ([4]; post-emergence, Postemergence) was 80%, the pest or weed control at 500 g/ha ([4]; post-emergence, Postemergence) was 90% and the pest or weed control at 125 g/ha ([4]; pre-emergence, Preemergence) was 100%. The pest or weed control at 500 g/ha ([4]; pre-emergence, Preemergence) was 100%, the pest or weed control at 125 g/ha ([5]; post-emergence, Postemergence) was 100% and the pest or weed control at 500 g/ha ([5]; post-emergence, Postemergence) was 100%. It also gave a pest or weed control at 125 g/ha ([5]; pre-emergence, Preemergence) of 70%, a pest or weed control at 500 g/ha ([5]; pre-emergence, Preemergence) of 80% and a pest or weed control at 125 g/ha ([11]; post-emergence, Postemergence) of 80%. It also gave a pest or weed control at 500 g/ha ([11]; post-emergence, Postemergence) of 100%, a pest or weed control at 125 g/ha ([11]; pre-emergence, Preemergence) of 80% and a pest or weed control at 500 g/ha ([11]; pre-emergence, Preemergence) of 90%. It also gave a Corn plant response rating (crop injury, 0 = no effect, 100 = complete kill) at 125 g/ha ([6]; post-emergence, Postemergence) of 40%, a Corn plant response rating (crop injury, 0 = no effect, 100 = complete kill) at 500 g/ha ([6]; post-emergence, Postemergence) of 50% and a Corn plant response rating (crop injury, 0 = no effect, 100 = complete kill) at 125 g/ha ([6]; pre-emergence, Preemergence) of 10%. For the same compound, the Corn plant response rating (crop injury, 0 = no effect, 100 = complete kill) at 500 g/ha ([6]; pre-emergence, Preemergence) was 20%, the pest or weed control at 125 g/ha ([7]; post-emergence, Postemergence) was 80% and the pest or weed control at 500 g/ha ([7]; post-emergence, Postemergence) was 100%. For the same compound, the pest or weed control at 125 g/ha ([7]; pre-emergence, Preemergence) was 100%, the pest or weed control at 500 g/ha ([7]; pre-emergence, Preemergence) was 100% and the plant injury at 125 g/ha ([8]; post-emergence, Postemergence) was 40%. The plant injury at 500 g/ha ([8]; post-emergence, Postemergence) was 50%, the plant injury at 125 g/ha ([8]; pre-emergence, Preemergence) was 10% and the plant injury at 500 g/ha ([8]; pre-emergence, Preemergence) was 30%. For the same compound, the pest or weed control at 125 g/ha ([9]; post-emergence, Postemergence) was 50%, the pest or weed control at 500 g/ha ([9]; post-emergence, Postemergence) was 90% and the pest or weed control at 125 g/ha ([9]; pre-emergence, Preemergence) was 40%. The pest or weed control at 500 g/ha ([9]; pre-emergence, Preemergence) was 80%, the pest or weed control at 125 g/ha ([10]; post-emergence, Postemergence) was 100% and the pest or weed control at 500 g/ha ([10]; post-emergence, Postemergence) was 100%. The pest or weed control at 125 g/ha ([10]; pre-emergence, Preemergence) was 100% and the pest or weed control at 500 g/ha ([10]; pre-emergence, Preemergence) was 100%.
